{"source": "patent US7317000B2", "about": "“Glucose-dependent insulins” (Novo Nordisk A/S, priority 2001, dated 2008)", "target": "solubilized human insulin receptor (Homo sapiens, UniProt P06213)", "sequence (P06213 28-758 limits assumed)": "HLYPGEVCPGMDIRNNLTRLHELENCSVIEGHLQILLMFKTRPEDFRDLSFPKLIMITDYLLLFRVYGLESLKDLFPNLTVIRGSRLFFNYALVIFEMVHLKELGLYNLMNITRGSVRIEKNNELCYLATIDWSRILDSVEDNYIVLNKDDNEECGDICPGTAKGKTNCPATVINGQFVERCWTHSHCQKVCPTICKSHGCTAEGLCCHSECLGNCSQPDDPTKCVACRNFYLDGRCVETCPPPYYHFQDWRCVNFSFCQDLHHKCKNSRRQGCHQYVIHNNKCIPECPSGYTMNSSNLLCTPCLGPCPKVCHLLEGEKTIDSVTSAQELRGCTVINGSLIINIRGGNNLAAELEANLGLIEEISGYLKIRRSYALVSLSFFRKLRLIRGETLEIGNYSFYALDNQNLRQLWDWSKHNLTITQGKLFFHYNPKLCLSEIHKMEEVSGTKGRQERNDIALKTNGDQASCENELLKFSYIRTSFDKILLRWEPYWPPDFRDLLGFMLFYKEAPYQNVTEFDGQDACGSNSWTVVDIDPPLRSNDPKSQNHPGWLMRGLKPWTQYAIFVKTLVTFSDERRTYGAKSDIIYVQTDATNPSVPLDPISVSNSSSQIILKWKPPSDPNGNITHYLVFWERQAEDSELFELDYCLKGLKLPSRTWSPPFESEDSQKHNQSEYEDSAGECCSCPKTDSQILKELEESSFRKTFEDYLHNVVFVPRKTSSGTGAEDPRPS", "sequence (P06213 763-1382 partner limits assumed)": "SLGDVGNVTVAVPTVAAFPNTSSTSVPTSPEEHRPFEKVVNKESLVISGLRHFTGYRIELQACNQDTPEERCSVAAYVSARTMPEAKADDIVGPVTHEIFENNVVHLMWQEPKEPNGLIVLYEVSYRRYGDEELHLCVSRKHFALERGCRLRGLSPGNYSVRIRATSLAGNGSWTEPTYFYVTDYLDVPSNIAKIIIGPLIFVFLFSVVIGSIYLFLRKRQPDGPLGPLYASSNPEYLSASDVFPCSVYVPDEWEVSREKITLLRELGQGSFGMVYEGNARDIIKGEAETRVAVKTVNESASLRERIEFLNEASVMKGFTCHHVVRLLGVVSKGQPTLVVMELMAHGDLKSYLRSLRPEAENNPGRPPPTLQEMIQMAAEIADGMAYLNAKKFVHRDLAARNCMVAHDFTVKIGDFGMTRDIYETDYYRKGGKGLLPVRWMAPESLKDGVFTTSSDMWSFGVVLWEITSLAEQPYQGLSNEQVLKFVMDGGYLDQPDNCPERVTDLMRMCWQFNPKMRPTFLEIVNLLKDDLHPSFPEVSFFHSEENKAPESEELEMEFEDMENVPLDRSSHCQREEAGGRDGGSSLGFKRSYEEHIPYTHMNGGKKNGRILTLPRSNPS", "experiment": "Insulin receptor binding by competition with 125I-TyrA14 human insulin (scintillation counting)", "conditions": "antibody-captured solubilized receptor on Scintiplates", "data": [{"substance": "Lys^B29(N^ε-(4-carboxyphenylalanine-N-methyl-glucamide), N^α-(4-borono-phenylsulfonyl)) des(B30), human insulin [Compound 23]", "values": [{"measurement": "Kd", "result": 0.015, "unit": "nM"}]}, {"substance": "Lys^B29-(N^ε(γ-L-glutamyl-α-D-glucamide, N^α-(3-borono-5-nitro-benzoyl)) des(B30) human insulin [Compound 10]", "values": [{"measurement": "Kd", "result": 0.016, "unit": "nM"}]}]}
